# Test results from patent publication US20220112479A1, “COMPOUNDS STABILIZING AMYLASES IN LIQUIDS” (BASF SE, priority 2018, published 2022).
# What was measured:
# Format in all cases: biochemical
# [1] = system: Amy1=Stainzyme; assay: amylase storage stability in liquid formulation (pNP release from Ethyliden-blocked-pNPG7); design: key: % of activity in reference formulation at time 0; settings: storage at 37° C.
# How it was run: (§1)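 Amylase (dosed as active protein) was stored at 37 °C in liquid base formulations with or without test or comparative compounds. Activity at set time points was measured as pNP release (A405) from blocked-pNPG7 with excess α-glucosidase, expressed relative to the reference formulation at time 0.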
# [2] = system: Amy2=Amplify; assay: as above; design: key: % of activity in reference formulation at time 0; settings: storage at 37° C.
# How it was run: as §1
# [3] = system: Amy3=Stainzyme Plus L (12L); assay: as above; settings: base formulation II., 1.5 wt % component (a), storage at 37° C.
# How it was run: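 Liquid formulations with amylase (as active protein) stored at 37 °C and sampled at intervals. Activity measured as pNP release (405 nm) from ethylidene-blocked pNPG7 with excess α-glucosidase, Termamyl standard; expressed relative to reference formulation at time 0.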
# [4] = molecular target: T1, Savinase Ultra 16.0L (Lederbergia lenta, UniProt P29600); assay: protease storage stability in liquid formulation (Suc-AAPF-pNA substrate); settings: storage at 37° C.
# T1 construct: purchased Sigma-Aldrich
# T1 sequence (P29600 1-269): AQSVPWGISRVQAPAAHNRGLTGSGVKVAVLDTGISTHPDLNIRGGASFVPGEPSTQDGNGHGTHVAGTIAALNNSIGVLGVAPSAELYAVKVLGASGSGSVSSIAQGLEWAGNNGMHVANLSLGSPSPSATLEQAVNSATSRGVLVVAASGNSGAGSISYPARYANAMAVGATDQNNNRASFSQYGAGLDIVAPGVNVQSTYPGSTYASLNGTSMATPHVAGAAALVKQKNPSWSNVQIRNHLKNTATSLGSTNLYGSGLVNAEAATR
# How it was run: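 Savinase in liquid base formulations containing test salt, comparative compound or diethylene glycol; amounts given as active protein. Residual activity at set storage times measured with Suc-AAPF-pNA via pNA release at OD405, 20 °C. Activity expressed relative to reference formulation at time 0.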
# [5] = base formulation I., 1.5 wt % component (a), 3 d
# [6] = base formulation I., 1.5 wt % component (a), 7 d
# [7] = base formulation I., 1.5 wt % component (a), 14 d
# [8] = base formulation I., 1.5 wt % component (a), 21 d
# [9] = base formulation I., 1.5 wt % component (a), 28 d
# [10] = base formulation I., 1.5 wt % component (a), 42 d
# [11] = base formulation I., 1.5 wt % component (a), T0
# [12] = base formulation IV., 2.0 wt % component (a), 3 d
# [13] = base formulation IV., 2.0 wt % component (a), 7 d
# [14] = base formulation IV., 2.0 wt % component (a), 14 d
# [15] = base formulation IV., 2.0 wt % component (a), 21 d
# [16] = base formulation IV., 2.0 wt % component (a), 28 d
# [17] = base formulation IV., 2.0 wt % component (a), 42 d
# [18] = base formulation IV., 2.0 wt % component (a), T0
# [19] = base formulation III., 1.5 wt % component (a), 3 d
# [20] = base formulation III., 1.5 wt % component (a), 7 d
# [21] = base formulation III., 1.5 wt % component (a), 14 d
# [22] = base formulation III., 1.5 wt % component (a), 21 d
# [23] = base formulation III., 1.5 wt % component (a), 28 d
# [24] = base formulation III., 1.5 wt % component (a), 42 d
# [25] = base formulation III., 1.5 wt % component (a), T0
# [26] = base formulation V., 2.0 wt % component (a), 3 d
# [27] = base formulation V., 2.0 wt % component (a), 7 d
# [28] = base formulation V., 2.0 wt % component (a), 14 d
# [29] = base formulation V., 2.0 wt % component (a), 21 d
# [30] = base formulation V., 2.0 wt % component (a), 28 d
# [31] = base formulation V., 2.0 wt % component (a), 42 d
# [32] = base formulation V., 2.0 wt % component (a), T0
substance,measurement,setting,value
Diethylcitrate [A.7],"amylase activity, referring to reference formulation at time 0",[1]; [5],96
same,"amylase activity, referring to reference formulation at time 0",[1]; [6],86
same,"amylase activity, referring to reference formulation at time 0",[1]; [7],81
same,"amylase activity, referring to reference formulation at time 0",[1]; [8],74
same,"amylase activity, referring to reference formulation at time 0",[1]; [9],63
same,"amylase activity, referring to reference formulation at time 0",[1]; [10],50
same,"amylase activity, referring to reference formulation at time 0",[1]; [11],99
same,"amylase activity, referring to reference formulation at time 0",[1]; [12],94
same,"amylase activity, referring to reference formulation at time 0",[1]; [13],88
same,"amylase activity, referring to reference formulation at time 0",[1]; [14],82
same,"amylase activity, referring to reference formulation at time 0",[1]; [15],74
same,"amylase activity, referring to reference formulation at time 0",[1]; [16],63
same,"amylase activity, referring to reference formulation at time 0",[1]; [17],52
same,"amylase activity, referring to reference formulation at time 0",[1]; [18],99
same,"amylase activity, referring to reference formulation at time 0",[2]; [19],96
same,"amylase activity, referring to reference formulation at time 0",[2]; [20],91
same,"amylase activity, referring to reference formulation at time 0",[2]; [21],85
same,"amylase activity, referring to reference formulation at time 0",[2]; [22],78
same,"amylase activity, referring to reference formulation at time 0",[2]; [23],70
same,"amylase activity, referring to reference formulation at time 0",[2]; [24],60
same,"amylase activity, referring to reference formulation at time 0",[2]; [25],98
same,"amylase activity, referring to reference formulation at time 0",[2]; [26],96
same,"amylase activity, referring to reference formulation at time 0",[2]; [27],87
same,"amylase activity, referring to reference formulation at time 0",[2]; [28],74
same,"amylase activity, referring to reference formulation at time 0",[2]; [29],63
same,"amylase activity, referring to reference formulation at time 0",[2]; [30],55
same,"amylase activity, referring to reference formulation at time 0",[2]; [31],47
same,"amylase activity, referring to reference formulation at time 0",[2]; [32],98
same,"amylase activity, referring to reference formulation at time 0",[3]; 3 d,94
same,"amylase activity, referring to reference formulation at time 0",[3]; 7 d,86
same,"amylase activity, referring to reference formulation at time 0",[3]; 14 d,82
same,"amylase activity, referring to reference formulation at time 0",[3]; 21 d,72
same,"amylase activity, referring to reference formulation at time 0",[3]; 28 d,64
same,"amylase activity, referring to reference formulation at time 0",[3]; 42 d,53
same,"amylase activity, referring to reference formulation at time 0",[3]; T0,99
same,"protease activity, referring to reference formulation at time 0",[4]; [5],94
same,"protease activity, referring to reference formulation at time 0",[4]; [6],91
same,"protease activity, referring to reference formulation at time 0",[4]; [7],85
same,"protease activity, referring to reference formulation at time 0",[4]; [8],81
same,"protease activity, referring to reference formulation at time 0",[4]; [9],76
same,"protease activity, referring to reference formulation at time 0",[4]; [10],63
same,"protease activity, referring to reference formulation at time 0",[4]; [11],100
same,"protease activity, referring to reference formulation at time 0","[4]; base formulation II., 1.5 wt % component (a), 3 d",98
same,"protease activity, referring to reference formulation at time 0","[4]; base formulation II., 1.5 wt % component (a), 7 d",93
same,"protease activity, referring to reference formulation at time 0","[4]; base formulation II., 1.5 wt % component (a), 14 d",88
same,"protease activity, referring to reference formulation at time 0","[4]; base formulation II., 1.5 wt % component (a), 21 d",85
same,"protease activity, referring to reference formulation at time 0","[4]; base formulation II., 1.5 wt % component (a), 28 d",80
same,"protease activity, referring to reference formulation at time 0","[4]; base formulation II., 1.5 wt % component (a), 42 d",71
same,"protease activity, referring to reference formulation at time 0","[4]; base formulation II., 1.5 wt % component (a), T0",100
same,"protease activity, referring to reference formulation at time 0",[4]; [19],97
same,"protease activity, referring to reference formulation at time 0",[4]; [20],95
same,"protease activity, referring to reference formulation at time 0",[4]; [21],92
same,"protease activity, referring to reference formulation at time 0",[4]; [22],87
same,"protease activity, referring to reference formulation at time 0",[4]; [23],74
same,"protease activity, referring to reference formulation at time 0",[4]; [24],64
same,"protease activity, referring to reference formulation at time 0",[4]; [25],100
same,"protease activity, referring to reference formulation at time 0",[4]; [12],96
same,"protease activity, referring to reference formulation at time 0",[4]; [13],88
same,"protease activity, referring to reference formulation at time 0",[4]; [14],79
same,"protease activity, referring to reference formulation at time 0",[4]; [15],74
same,"protease activity, referring to reference formulation at time 0",[4]; [16],68
same,"protease activity, referring to reference formulation at time 0",[4]; [17],62
same,"protease activity, referring to reference formulation at time 0",[4]; [18],98
same,"protease activity, referring to reference formulation at time 0",[4]; [26],93
same,"protease activity, referring to reference formulation at time 0",[4]; [27],88
same,"protease activity, referring to reference formulation at time 0",[4]; [28],79
same,"protease activity, referring to reference formulation at time 0",[4]; [29],72
same,"protease activity, referring to reference formulation at time 0",[4]; [30],66
same,"protease activity, referring to reference formulation at time 0",[4]; [31],54
same,"protease activity, referring to reference formulation at time 0",[4]; [32],97
